Article PMC9099123 (Clinical and Translational Science, 2022)
Where “and” joins values, the source holds several entries; their conditions need not be identical. Equal entries are not always repeated. Values belong to the compound of their own block, whether it stands above or below them.

What was measured:
[1] = Plasma PK of enzalutamide and N-desmethyl enzalutamide in men with mCRPC
[2] = Urine PK of digoxin in men with mCRPC; format: in vivo, human; conditions: for CL renal: male, human, oral, CLR; for CL renal / Aelast%, GLSM / Aelast%, Mean ± SD / Aelast%, Median (range) / Aelast, Median (range): urine; for Aelast, Mean ± SD: urine up to 24 h
P-gp [3] = experiment: Effect of enzalutamide on PK of digoxin; format: in vivo, human
Safety and tolerability = format: in vivo, human; conditions: for TEAEs considered related to the drug: single dose in cocktail, days 1 and 64
[4] = Plasma PK of digoxin and rosuvastatin; conditions: for AUC(0-inf) / AUC(0-t) / Cmax / Vd/F / half-life: male, human, in vivo; for AUC(0-inf): AUCinf; for AUC(0-t): AUClast; for Vd/F: Vz/F; for half-life: t½
BCRP [5] = experiment: Effect of enzalutamide on PK of rosuvastatin; format: in vivo, human
CYP3A4 [6] = conditions: human hepatocytes; ref data on file; cited from earlier work
CYP2C9 = conditions: previous clinical DDI studies, cited from earlier work
CYP2C19 = conditions: previous clinical DDI studies, cited from earlier work
CYP3A4 [7] = conditions: previous clinical DDI studies, cited from earlier work
clinical = conditions: male, human, plasma
P-gp [8] = conditions: co-administration with rifampin; cited from earlier work
BCRP [9] = conditions: co-administered with rifampin; cited from earlier work
[10] = Enzalutamide + cocktail (day 64)
[11] = digoxin co-administered with enzalutamide versus taken alone
[12] = digoxin plasma, day 64 vs day 1
[13] = GLSM, plasma, Enzalutamide + cocktail (day 64)
[14] = Mean ± SD, plasma, Cocktail (day 1)
[15] = Median (range), plasma, Cocktail (day 1)
[16] = Mean ± SD, plasma, Enzalutamide + cocktail (day 64)
[17] = Median (range), plasma, Enzalutamide + cocktail (day 64)
[18] = plasma, Enzalutamide + cocktail (day 64)
[19] = following enzalutamide, 2 patients
[20] = rosuvastatin co-administered with enzalutamide versus taken alone
[21] = rosuvastatin plasma, day 64 vs day 1

Compound: CC1(C)C(=O)N(c2ccc(C#N)c(C(F)(F)F)c2)C(=S)N1c1ccc(C(N)=O)c(F)c1 [N‐desmethyl enzalutamide]
- Mean Ctrough ([1]; day 35): 9100 ng/mL
- AUCtau, Mean ± SD ([1]; day 64): 259000 ± 37900 ng·h/mL
- AUCtau, Median (range) ([1]; day 64): 251 (189–327) h·µg/ml
- Cmax, Median (range) ([1]; day 64): 12.1 (8.9–15.3) µg/ml
- Ctrough, Mean ± SD ([1]; day 64): 11600 ng/mL and 11600 ± 1900 ng/mL
- Ctrough, Median (range) ([1]; day 64): 11.7 (7.7–15.0) µg/ml
- Cmax, Mean ± SD ([1]; day 64, enzalutamide 160 mg oral once daily from day 8): 12300 ± 1700 ng/mL
- Mean Ctrough ([1]; day 68): 11900 ng/mL
- Mean Ctrough ([1]; day 71): 12100 ng/mL

- CL renal ([2]; Mean ± SD, Cocktail (day 1)): 105 mL/min
- CL renal ([2]; Mean ± SD, Enzalutamide + cocktail (day 64)): 81.7 mL/min
- CL renal ([2]; Median (range), Cocktail (day 1)): 100 mL/min
- CL renal ([2]; Median (range), Enzalutamide + cocktail (day 64)): 78.3 mL/min
- Aelast, Mean ± SD ([2]; Cocktail (day 1)): 0.05 ± 0.01 mg
- Aelast, Mean ± SD [2, 10]: 0.05 ± 0.01 mg
- Aelast%, GLSM ([2]; Cocktail (day 1)): 19.4%
- Aelast%, Mean ± SD ([2]; Cocktail (day 1)): 20.1 ± 5.1%
- Aelast%, Median (range) ([2]; Cocktail (day 1)): 21.3 (9.2–31.5) %
- Aelast, Median (range) ([2]; Cocktail (day 1)): 0.05 (0.02–0.08) mg
- Aelast%, GLSM [2, 10]: 17.3%
- Aelast%, Mean ± SD [2, 10]: 18.2 ± 5.4%
- Aelast%, Median (range) [2, 10]: 17.9 (6.6–26.5) %
- Aelast, Median (range) [2, 10]: 0.04 (0.02–0.07) mg
- increase in AUCinf (GLSM ratio) (P-gp [3]; [11]): 33%
- increase in AUClast (GLSM ratio) (P-gp [3]; [11]): 29%
- increase in Cmax (GLSM ratio) (P-gp [3]; [11]): 17%
- AUCinf, GLSM ratio (95% CI) (P-gp [3]; [12]): 133.5 (125.3–142.2)
- AUClast, GLSM ratio (95% CI) (P-gp [3]; [12]): 129.1 (121.0–137.7)
- Cmax, GLSM ratio (95% CI) (P-gp [3]; digoxin plasma, enzalutamide + cocktail (day 64) vs cocktail (day 1)): 117.0 (105.8–129.3)
- decrease in Aelast% (P-gp [3]; digoxin urine, co-administered with enzalutamide): 10%
- Aelast%, GLSM ratio (95% CI) (P-gp [3]; digoxin urine, day 64 vs day 1): 89.6 (79.1–101.6)
- decrease in CLR (P-gp [3]; digoxin, co-administered with enzalutamide): 22%
- digoxin plasma concentrations, all patients ([4]; cocktail day 1, 0.5–168 h postdose, above LLOQ): > 10 pg/mL
- AUC(0-inf) ([4]; GLSM, plasma, Cocktail (day 1)): 24.1 ng·h/mL
- AUC(0-inf) [4, 13]: 32.1 ng·h/mL
- AUC(0-inf) [4, 14]: 24.6 ng·h/mL
- AUC(0-inf) [4, 15]: 25.1 ng·h/mL
- AUC(0-t) ([4]; GLSM, plasma, Cocktail (day 1)): 21.7 ng·h/mL
- AUC(0-t) [4, 13]: 28 ng·h/mL
- AUC(0-t) [4, 14]: 22.1 ng·h/mL
- AUC(0-t) [4, 16]: 28.7 ng·h/mL
- AUC(0-t) [4, 15]: 22.7 ng·h/mL
- AUC(0-t) [4, 17]: 27.1 ng·h/mL
- Cmax [4, 15]: 1.47 ng/mL
- Cmax [4, 17]: 1.62 ng/mL
- Vd/F [4, 14]: 785 ± 138 L
- Vd/F [4, 16]: 710 ± 114 L
- Vd/F [4, 15]: 786 L
- Vd/F [4, 17]: 727 L
- half-life [4, 14]: 52.3 ± 8.2 h
- half-life [4, 16]: 63.5 ± 9.5 h
- half-life [4, 15]: 50.5 h
- CL/F, Mean ± SD ([4]; plasma, Cocktail (day 1)): 10.6 ± 2.3 L/h
- CL/F, Median (range) ([4]; plasma, Cocktail (day 1)): 9.9 (7.4–16.3) L/h
- tmax, Median (range) ([4]; plasma, Cocktail (day 1)): 1.50 (0.50–3.00) h
- CL/F, Mean ± SD [4, 18]: 7.9 ± 1.7 L/h
- CL/F, Median (range) [4, 18]: 7.8 (4.6–11.6) L/h
- tmax, Median (range) [4, 18]: 1.00 (0.50–2.50) h
- Cmax, Mean ± SD ([4]; plasma, Enzalutamide + cocktail (day 64), enzalutamide 160 mg once daily): 1.69 ± 0.384 ng/mL
Compound: C[C@H]1O[C@@H](O[C@H]2[C@@H](O)C[C@H](O[C@H]3[C@@H](O)C[C@H](O[C@H]4CC[C@@]5(C)[C@H](CC[C@@H]6[C@@H]5C[C@@H](O)[C@]5(C)[C@@H](C7=CC(=O)OC7)CC[C@]65O)C4)O[C@@H]3C)O[C@@H]2C)C[C@H](O)[C@@H]1O [digoxin]
- TEAEs considered related to the drug (Safety and tolerability): no TEAEs were considered to be related

Compound: CNC(=O)c1ccc(N2C(=S)N(c3ccc(C#N)c(C(F)(F)F)c3)C(=O)C2(C)C)cc1F [enzalutamide]
- effect of enzalutamide on P-gp inhibition (class) (P-gp [3]; GLSM ratios of digoxin less than two-fold, enzalutamide 160 mg once daily): mild
- effect of enzalutamide on the PK of rosuvastatin (class) (BCRP [5]; 90% CI for Cmax and AUCinf GLSM ratios within 80–125%): no effect
- tolerability (Safety and tolerability; enzalutamide alone and in combination with digoxin and rosuvastatin): well tolerated
- patients with decreased white blood cell count (TEAE) (Safety and tolerability; [19]): 8.3%
- patients with dizziness (TEAE) (Safety and tolerability; [19]): 8.3%
- patients with urinary tract infection (TEAE) (Safety and tolerability; [19]): 8.3%
- patients with TEAEs considered potentially related to enzalutamide (Safety and tolerability; one eosinophilia, two decreased white blood cell count, three patients): 12.5%
- deaths (Safety and tolerability; whole study): no deaths
- serious TEAEs (Safety and tolerability; whole study): No serious TEAEs were reported
- severity of all TEAEs (Safety and tolerability; whole study): mild
- CYP3A4 mRNA induction, % of positive control (CYP3A4 [6]): 95.9%
- increase of CYP3A4 enzyme activity (CYP3A4 [6]): up to 3.88 fold
- increase of CYP3A4 mRNA levels (CYP3A4 [6]): ≤ 6.90 fold
- inducer class (CYP2C9; CYP2C9): moderate inducer
- reduction of exposure of probe substrate (CYP2C9; CYP2C9 probe substrate): 56%
- inducer class (CYP2C19; CYP2C19): moderate inducer
- reduction of exposure of probe substrate (CYP2C19; CYP2C19 probe substrate): 70%
- inducer class (CYP3A4 [7]; CYP3A4): strong inducer
- reduction of exposure of probe substrate (CYP3A4 [7]; CYP3A4 probe substrate): 86%
- AUC (clinical; oral): 333000 ± 57800 ng·h/mL
- Cmax (clinical; oral): 17200 ng/mL
- Cmax (clinical; po, 160 mg): 17100 ± 2800 ng/mL
- Mean Ctrough ([1]; day 35): 14100 ng/mL
- AUCtau, Median (range) ([1]; day 64): 344 (210–435) h·µg/ml
- Ctrough, Mean ± SD ([1]; day 64): 13900 ng/mL
- Ctrough, Median (range) ([1]; day 64): 14.1 (8.3–19.4) µg/ml
- Ctrough, Mean ± SD ([1]; day 64, listed as Enzalutamide): 13900 ± 2900 ng/mL
- Mean Ctrough ([1]; day 68): 14000 ng/mL
- Mean Ctrough ([1]; day 71): 14000 ng/mL

Compound: CO[C@H]1/C=C/O[C@@]2(C)Oc3c(C)c(O)c4c(O)c(c(/C=N/N5CCN(C)CC5)c(O)c4c3C2=O)NC(=O)/C(C)=C\C=C\[C@H](C)[C@H](O)[C@@H](C)[C@@H](O)[C@@H](C)[C@H](OC(C)=O)[C@@H]1C [rifampin]
- decrease of AUC of digoxin (P-gp [8]): 30%
- decrease of Cmax of digoxin (P-gp [8]): 58%
- decrease in Cmax of rosuvastatin (BCRP [9]): 30%

- increase in Cmax (GLSM ratio) (BCRP [5]; [20]): 6%
- reduction in AUClast (GLSM ratio) (BCRP [5]; [20]): 14%
- AUCinf, GLSM ratio (95% CI) (BCRP [5]; [21]): 89.3 (80.0–99.8)
- AUClast, GLSM ratio (95% CI) (BCRP [5]; [21]): 86.1 (77.5–95.7)
- Cmax, GLSM ratio (95% CI) (BCRP [5]; rosuvastatin plasma, enzalutamide + cocktail (day 64) vs cocktail (day 1)): 106.3 (94.7–119.3)
- AUC(0-inf) ([4]; GLSM, plasma, Cocktail (day 1)): 62.7 ng·h/mL
- AUC(0-inf) [4, 13]: 56 ng·h/mL
- AUC(0-inf) [4, 14]: 69.5 ng·h/mL
- AUC(0-inf) [4, 16]: 59.7 ng·h/mL
- AUC(0-inf) [4, 15]: 68.6 ng·h/mL
- AUC(0-inf) [4, 17]: 55.5 ng·h/mL
- AUC(0-t) ([4]; GLSM, plasma, Cocktail (day 1)): 56.7 ng·h/mL
- AUC(0-t) [4, 13]: 48.8 ng·h/mL
- AUC(0-t) [4, 14]: 61.8 ng·h/mL
- AUC(0-t) [4, 16]: 52.8 ng·h/mL
- AUC(0-t) [4, 15]: 56.1 ng·h/mL
- AUC(0-t) [4, 17]: 48.4 ng·h/mL
- Cmax ([4]; GLSM, plasma, Cocktail (day 1)): 4.3 ng/mL
- Cmax [4, 15]: 4.71 ng/mL
- Cmax [4, 17]: 4.49 ng/mL
- Vd/F [4, 14]: 5400 ± 3950 L
- Vd/F [4, 16]: 5420 ± 3510 L
- Vd/F [4, 15]: 4310 L
- Vd/F [4, 17]: 3490 L
- half-life [4, 14]: 22.5 ± 11.4 h
- CL/F, Mean ± SD ([4]; plasma, Cocktail (day 1)): 163 ± 68.5 L/h
- CL/F, Median (range) ([4]; plasma, Cocktail (day 1)): 146 (94.5–366) L/h
- tmax, Median (range) ([4]; plasma, Cocktail (day 1)): 4.0 (1.0–6.0) h
- CL/F, Mean ± SD [4, 18]: 186 ± 62.4 L/h
- CL/F, Median (range) [4, 18]: 180 (91.6–314) L/h
- tmax, Median (range) [4, 18]: 3.0 (0.5–6.0) h
Compound: CC(C)c1nc(N(C)S(C)(=O)=O)nc(-c2ccc(F)cc2)c1/C=C/[C@@H](O)C[C@@H](O)CC(=O)O [rosuvastatin]
- TEAEs considered related to the drug (Safety and tolerability): no TEAEs were considered to be related
